Source: patent publication US20240216401A1, “COMBINATION THERAPY BY USING AKR1C3-ACTIVATED COMPOUND WITH IMMUNE CHECKPOINT INHIBITOR” (OBI Pharma, Inc., priority 2021, published 2024)
Where “and” joins values, the source holds several entries; their conditions need not be identical. Equal values may be shown once.

Tests used:
Format in all cases: in vivo, Mus musculus
HepG2 tumor = assay: Example 1: tumor volume, tumor weight and TGI in HepG2 tumor bearing humanized mice
Experimental: (§1) Each group contains five mice. The human hepatocellular carcinoma cell line HepG2 were subcutaneously inoculated to the advanced immune deficiency mice. Total of 30 mice were included in this study.
2.2. […] The subcutaneous injection volume was […].
(§2) 3.1. […] The injection was performed using insulin syringe with the dosage of 10 mg/kg (Dosage of injection was changed to 20 mg/kg from Day 15) and injection volume of 10 mL/kg. […] The reference item was administered for G1. The procedure followed the standards of sample administration.
(§3) 3.2. The test item anti-hPD-L1 antibody or reference items were intraperitoneally injected to the mice on Day 8 after the inoculation of tumor cells. The injection was performed using insulin syringe with the dosage of 10 mg/kg (Dosage of injection was changed to 20 mg/kg from Day 15) and injection volume of 10 mL/kg. The test item anti-hPD-L1 was continuously administered on Day 8, 11, 15, 18, 22, 25, 29 and 32 for G4 and G6. The reference item was administered for G1. The procedure followed the standards of sample administration.
(§4) 3.3. […] The injection was performed using insulin syringe with the dosage of 1 mg/kg and injection volume of 5 mL/kg. […] The reference item was administered for G1. The procedure followed the standards of sample administration.
The measurement was performed from the next day of the inoculation. The tumor volumes were measured and recorded twice a week (Mon., Thur.). Tumor volume was calculated by ellipsoid equation according to the records ((major axis×minor axis×minor axis)×(π/6)).
Tumor volumes were used to calculate tumor growth inhibition (TGI) rates according to the following formula: TGI (%)=[1−(Ti−T0)/(Ci−C0)]×100, where Ti and Ci indicate the mean tumor volume in the treatment groups and vehicle group at the end of the experiment (Day 35). Whereas, T0 and C0 indicate the mean tumor volumes in the treatment group and vehicle group at the beginning of the experiment (Day 1).
(§5) Mice were sacrificed by CO2 euthanasia at the end of the study duration, and the connective tissue around tumor was resected. The tumor samples were then removed and weighed. The half tissue was fixed in 10% formaldehyde and then embedded in paraffin; the other half was prepared for the isolation of tumor-infiltrating lymphocytes (TILs).

[1] = Example 1: body weight and mortality of HepG2 tumor bearing humanized mice; details: for Body Weight, Mean: OBI-3424 1 mg/kg IV, antibody 10 mg/kg IP (20 from Day 15)
Experimental: as §1, §2, §3, §4
The measurement was performed from the next day of the inoculation. The animal body weights were measured and recorded twice per week.

[2] = test system: CD8^+ cytotoxic T cells (CTL) in tumor-infiltrating lymphocytes; assay: Example 1: flow cytometry, percentage of CTL cells in TILs
Experimental: as §5
(§6) The half of mouse tumors were dissected into smaller fragments using scalpels and then digested with a cocktail of collagenase, DNase I, and Hyaluronidase (Collagenase #C5138, DNase I #D5025, Hyaluronidase #H6254, SigmaAldrich) for at least 2 hours.
(§7) Cells were stained with the fluorescently conjugated surface antibodies and incubated for 30 minutes at 4° C., and then resuspended in staining buffer for flow cytometric analysis. Flow cytometry was done using a Navios EX Flow Cytometer (Beckman Coulter). Data were analyzed using the Kaluza Analysis Software (Beckman Coulter).

[3] = test system: CD4^+ T helper cells in tumor-infiltrating lymphocytes; assay: Example 1: flow cytometry, percentage of TH cells in TILs; details: individual mice
Experimental: as §5, §6, §7

[4] = test system: NK cells in tumor-infiltrating lymphocytes; assay: Example 1: flow cytometry, percentage of NK cells in TILs; details: individual mice
Experimental: as §5, §6, §7

[5] = test system: PD-L1^+ cells in tumor-infiltrating lymphocytes; assay: Example 1: flow cytometry, percentage of PD-L1 cells in TILs; details: individual animal
Experimental: as §5, §6, §7

[6] = TILs, flow cytometer, individual mice
[7] = TILs, gate CD45^+CD8^+ cells, individual mice

anti-hPD-L1: Anti-Human PD-L1 antibody, Avelumab
Tumor volume, Mean (HepG2 tumor; D 1, group mean, OBI-3424 1 mg/kg IV, antibody 10 mg/kg IP (20 from Day 15)): 409.71 mm^3 | Tumor volume, Mean (HepG2 tumor; D 4, group mean, OBI-3424 1 mg/kg IV, antibody 10 mg/kg IP (20 from Day 15)): 316.07 mm^3 | Tumor volume, Mean (HepG2 tumor; D 7, group mean, OBI-3424 1 mg/kg IV, antibody 10 mg/kg IP (20 from Day 15)): 304.50 mm^3 | Tumor volume, Mean (HepG2 tumor; D 11, group mean, OBI-3424 1 mg/kg IV, antibody 10 mg/kg IP (20 from Day 15)): 342.83 mm^3 | Tumor volume, Mean (HepG2 tumor; D 14, group mean, OBI-3424 1 mg/kg IV, antibody 10 mg/kg IP (20 from Day 15)): 371.47 mm^3 | Tumor volume, Mean (HepG2 tumor; D 18, group mean, OBI-3424 1 mg/kg IV, antibody 10 mg/kg IP (20 from Day 15)): 491.18 mm^3 | Tumor volume, Mean (HepG2 tumor; D 21, group mean, OBI-3424 1 mg/kg IV, antibody 10 mg/kg IP (20 from Day 15)): 675.33 mm^3 | Tumor volume, Mean (HepG2 tumor; D 25, group mean, OBI-3424 1 mg/kg IV, antibody 10 mg/kg IP (20 from Day 15)): 812.95 mm^3 | Tumor volume, Mean (HepG2 tumor; D 28, group mean, OBI-3424 1 mg/kg IV, antibody 10 mg/kg IP (20 from Day 15)): 866.97 mm^3 | Tumor volume, Mean (HepG2 tumor; D 32, group mean, OBI-3424 1 mg/kg IV, antibody 10 mg/kg IP (20 from Day 15)): 1155.84 mm^3 | Tumor volume, Mean (HepG2 tumor; D 35, group mean (mean±SEM), OBI-3424 1 mg/kg IV, antibody 10 mg/kg IP (20 from Day 15)): 1148.64±193.00 mm^3 and 1148.64 mm^3 | Tumor weight, Mean (HepG2 tumor; D 35, group mean, OBI-3424 1 mg/kg IV, antibody 10 mg/kg IP (20 from Day 15)): *1010.73 mg | mean tumor volume compared with vehicle (in words) (HepG2 tumor; Day 35, vs vehicle (G1), Student's t-test): No statistically significant difference | effect on tumor growth (conclusion in words) (HepG2 tumor; HepG2 humanized mouse model): no effect on tumor growth | TGI (HepG2 tumor; from mean tumor volumes Day 35 vs Day 1, relative to vehicle, OBI-3424 1 mg/kg IV, antibody 10 mg/kg IP (20 from Day 15)): 35.60% | Body Weight, Mean ([1]; Day 0, group mean): 22.87 g | Body Weight, Mean ([1]; Day 1, group mean): 22.73 g | Body Weight, Mean ([1]; Day 4, group mean): 23.32 g | Body Weight, Mean ([1]; Day 7, group mean): 23.48 g | Body Weight, Mean ([1]; Day 11, group mean): 24.17 g | Body Weight, Mean ([1]; Day 14, group mean): 23.74 g | Body Weight, Mean ([1]; Day 18, group mean): 23.56 g | Body Weight, Mean ([1]; Day 21, group mean): 23.37 g | Body Weight, Mean ([1]; Day 25, group mean): 23.70 g | Body Weight, Mean ([1]; Day 28, group mean): 23.57 g | Body Weight, Mean ([1]; Day 32, group mean): 22.55 g | Body Weight, Mean ([1]; Day 35, group mean): 23.35 g | mortality ([1]; one mouse (MI052) of G4): found dead on Day 34 | CD8^+ cytotoxic T cells (CTL) population in tumors compared with vehicle (in words) ([2]; Example 1, TILs at sacrifice, flow cytometry): not observed | CD25^+ CTL cells (CD45^+CD8^+ CD25^+) Total % [2, 6]: 0.27% and 0.30% and 0.21% and 0.63% | CTL cells (CD45^+CD8^+) Total % [2, 6]: 14.00% and 18.51% and 11.85% and 16.01% | PD-1^+ CTL cells (CD45^+CD8^+ PD-1^+) Total % [2, 6]: 17.16% and 16.84% and 12.16% and 16.68% | CTL cells (CD45^+CD8^+) CD45^+ Gated % ([2]; TILs, gate CD45^+ cells, individual mice): 57.51% and 57.17% and 56.56% and 70.33% | CD25^+ CTL cells (CD45^+CD8^+ CD25^+) CTL Gated % [2, 7]: 1.93% and 1.59% and 1.77% and 3.90% | PD-1^+ CTL cells (CD45^+CD8^+ PD-1^+) CTL Gated % [2, 7]: 97.44% and 88.98% and 94.63% and 98.61% | CD25^+ CTL cells (CD45^+CD8^+ CD25^+) Cell count ([2]; TILs, individual mice): 0.33 ×10^5 and 0.66 ×10^5 and 0.37 ×10^5 and 0.45 ×10^5 | CTL cells (CD45^+CD8^+) Cell count ([2]; TILs, individual mice): 17.08 ×10^5 and 40.72 ×10^5 and 20.97 ×10^5 and 11.56 ×10^5 | PD-1^+ CTL cells (CD45^+CD8^+ PD-1^+) Cell count ([2]; TILs, individual mice): 20.94 ×10^5 and 37.05 ×10^5 and 21.52 ×10^5 and 12.04 ×10^5 | CD25^+ TH cells (CD45^+CD4^+ CD25^+) Total % ([3]; flow cytometer): 1.19% and 1.34% and 1.01% and 1.14% | PD-1^+ TH cells (CD45^+CD4^+ PD-1^+) Total % ([3]; flow cytometer): 10.85% and 11.67% and 6.66% and 15.38% | TH cells (CD45^+CD4^+) Total % ([3]; flow cytometer): 9.82% and 12.42% and 6.81% and 15.92% | TH cells (CD45^+CD4^+) CD45^+ Gated % ([3]; gate CD45^+ cells): 40.34% and 38.36% and 32.51% and 69.93% | CD25^+ TH cells (CD45^+CD4^+CD25^+) TH Gated % ([3]; gate CD45^+CD4^+ cells): 12.12% and 10.75% and 14.76% and 7.16% | PD-1^+ TH cells (CD45^+CD4^+ PD-1^+) TH Gated % ([3]; gate CD45^+CD4^+ cells): 99.40% (2×) and 99.02% and 99.19% | CD25^+ TH cells (CD45^+CD4^+ CD25^+) Cell count [3]: 1.45 ×10^5 and 2.95 ×10^5 and 1.79 ×10^5 and 0.82 ×10^5 | PD-1^+ TH cells (CD45^+CD4^+ PD-1^+) Cell count [3]: 13.24 ×10^5 and 25.67 ×10^5 and 11.79 ×10^5 and 11.10 ×10^5 | TH cells (CD45^+CD4^+) Cell count [3]: 11.98 ×10^5 and 27.32 ×10^5 and 12.05 ×10^5 and 11.49 ×10^5 | CD16^+ NK cells (CD45^+CD56^+ CD16^+) Total % ([4]; flow cytometer): 0.44% and 0.80% and 0.62% and 0.48% | NK cells (CD45^+CD56^+) Total % ([4]; flow cytometer): 1.67% and 2.61% and 1.42% and 1.80% | PD-1^+ NK cells (CD45^+CD56^+PD-1^+) Total % ([4]; flow cytometer): 2.28% (2×) and 2.10% and 1.78% | NK cells (CD45^+CD56^+) CD45^+ Gated % ([4]; gate CD45^+ cells): 9.51% and 10.84% and 12.49% and 8.78% | CD16^+ NK cells (CD45^+CD56^+ CD16^+) NK Gated % ([4]; gate CD45^+CD56^+ cells): 26.13% and 30.65% and 43.46% and 26.39% | PD-1^+ NK cells (CD45^+CD56^+PD-1^+) NK Gated % ([4]; gate CD45^+CD56^+ cells): 99.56% and 97.23% and 88.77% and 91.52% | CD16^+ NK cells (CD45^+CD56^+ CD16^+) Cell count [4]: 0.54 ×10^5 and 1.76 ×10^5 and 1.10 ×10^5 and 0.35 ×10^5 | NK cells (CD45^+CD56^+) Cell count [4]: 2.04 ×10^5 and 5.74 ×10^5 and 2.51 ×10^5 and 1.30 ×10^5 | PD-1^+ NK cells (CD45^+CD56^+PD-1^+) Cell count [4]: 2.78 ×10^5 and 5.02 ×10^5 and 3.72 ×10^5 and 1.29 ×10^5 | CD45^+ cells Cell count (×10^6) [5]: 2.97 ×10^6 and 7.12 ×10^6 and 3.71 ×10^6 and 1.64 ×10^6 | CD45^+ cells Gated % [5]: 34.93% and 47.08% and 31.41% and 28.59% | CD45^+ cells Total % [5]: 24.35% and 32.38% and 20.95% and 22.77% | Total PD-L1^+ cells (PD-L1^+) Cell count (×10^5) [5]: 1.35 ×10^5 and 3.98 ×10^5 and 15.58 ×10^5 and 12.17 ×10^5 | Total PD-L1^+ cells (PD-L1^+), Total % [5]: 1.11% and 1.81% and 8.80% and 16.86% | Total PD-L1^+ cells (PD-L1^+), Total cells Gated % [5]: 1.43% and 2.38% and 11.79% and 19.02% | Total cells Cell count (×10^6) [5]: 9.42 ×10^6 and 16.72 ×10^6 and 13.21 ×10^6 and 6.40 ×10^6 | Total cells Gated % [5]: 77.18% and 75.98% and 74.62% and 88.63% | Total cells Total % [5]: 77.18% and 75.98% and 74.62% and 88.63%
